The text below walks through data of US20170114025A1, “METHODS FOR INHIBITING NECROPTOSIS” (Catalyst Therapeutics Pty Ltd, priority 2014, published 2017).

For series [1], the target named is T1, mouse MLKL(179-464) pseudokinase domain (Mus musculus, UniProt Q9D2Y4).
T1 construct: made in house; host or cells: Sf21 insect cells
T1 sequence (Q9D2Y4 179-464 isoform Q9D2Y4-2): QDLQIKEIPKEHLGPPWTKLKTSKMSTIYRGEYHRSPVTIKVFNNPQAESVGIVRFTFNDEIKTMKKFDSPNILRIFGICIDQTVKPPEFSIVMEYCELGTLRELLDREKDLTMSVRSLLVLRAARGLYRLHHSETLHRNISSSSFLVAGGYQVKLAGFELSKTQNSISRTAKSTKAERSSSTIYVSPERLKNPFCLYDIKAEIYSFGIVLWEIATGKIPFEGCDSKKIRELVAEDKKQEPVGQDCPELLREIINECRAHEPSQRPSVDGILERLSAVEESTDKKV
The series can be described thus: Surface Plasmon Resonance (SPR) binding, mouse MLKL. An excerpt:
Double His-tagged MLKL and an unrelated negative control reference protein were immobilized on an NTA Capture chip charged with Ni^2+ according to manufacturer's instructions. In some instances, double His-tagged proteins were captured via Ni^2+/NTA chelation on a series S sensor chip containing carboxymethylated dextran surface pre-immobilized with nitrilotriacetic acid (NTA). The surface was then activated and enhanced with NHS/EDC mixture and His captured proteins covalently coupled to the surface as succinamide esters. Ethanolamine was injected later to block any unreacted esters. Unbound Ni^2+ and non-covalently bound proteins were eluted by EDTA injections.
Typical immobilization levels were 2000-3000 Response Units (RU). Flow cell 1 was left blank as a reference surface. Immobilization experiments were carried out at 25° C. in a running buffer containing 20 mM HEPES (pH 8.0), 200 mM NaCl and 0.005% (v/v) surfactant P20.
Binding experiments were carried out in Running Buffer+2% v/v DMSO. […] Data were reduced, solvent corrected, and double referenced by Biacore T200 Evaluation Software. Data were fit globally to a two state kinetic interaction model and the Kd determined from the (kd/ka) ratio. A 1:1 binding stoichiometry was inferred from the steady state binding curves and the maximum observed Response Unit (RU) levels.

The test system of the next series is wild type U937 cells. The series is described as follows: Cell death assay, TSQ-induced necroptosis in U937 cells (PI, flow cytometry). Particulars: for IC50: Homo sapiens. The series is classed as cell-based, human. An excerpt: (§1) Mouse dermal fibroblasts (MDFs) were isolated from three MlkI^−/− mice and three congenic wild type mice and then immortalized by SV40 large T antigen to generate three biologically independent cell lines, as described in Murphy J M, et al. (2013), Immunity 39(3):443-453. Immortalized MDFs were similarly prepared from three Ripk3^−/− mice and congenic wild type mice. MDFs and HEK293T were maintained in Dulbecco's modified Eagle's medium (DMEM) supplemented with 8-10% v/v fetal calf serum (FCS), and 5 μg/mL puromycin for lines stably transduced with inducible expression constructs for MLKL. U937 cells were cultured in RPMI1640 supplemented with 8% v/v FCS. Cell death assays were carried out in 24 well plates, seeding 1×10^5 cells per well. Cells attached over 4 h in the presence of 10 ng/mL doxycycline or 20 ng/mL were then treated with assorted combinations of Necrostatin (50 μM) and Q-VD-OPh (5 μM) 30 min prior to addition of TNF (100 ng/mL) and Smac mimetic (500 nM). After 24 h for MDF cells or 48 h for U937 cells, cells were harvested and PI positive cells (1 μg/mL) quantified using a BD FACSCalibur flow cytometer.
(In general: In flow cytometry, cells or beads pass a laser one at a time.)

In another series the test system is U937 cells. The series can be described thus: Counter screen: cell viability without TSQ cocktail (off target effect). Format: cell-based. Particulars: U937 without TSQ cocktail. As for the experimental part:
In parallel, all compounds are tested for their ability to affect cell viability. The same U937 cells are treated with compound in DMSO without the TSQ cocktail. This counter screen enables evaluation of off-target effects. In this case gain, cell viability is measured by flow cytometry after PI staining.
(A counterscreen serves to expose hits that act by an unwanted route or on another target.)

The target in a further series is T2, recombinant RIPK3 (Mus musculus, UniProt Q9QZL0).
T2 construct: Recombinant mRIPK3 kinase domain was expressed and purified from Sf21 cells; made in house; host or cells: Sf21 cells
The series can be described thus: In vitro kinase assay. The series is classed as biochemical. Particulars: for concentrations leading to enhanced RIPK3-mediated phosphorylation of MLKL: mouse MLKL(179-464) as substrate. Here is the method:
In vitro kinase assays were performed as described previously in Murphy J M, et al. (2013), Immunity 39(3):443-453 and Cook W D, et al. (2014) Cell Death Diff. in press, but for the addition of either a DMSO control or up to 12.5 μM of test compound in 0.5% v/v final DMSO.

In series [2] the test system is U937 cells gene-edited to delete MLKL. The series is described as follows: Toxicity / TS-induced apoptotic death in U937 cells gene-edited to delete MLKL. Particulars: U937 cells lacking MLKL, TS treatment. Format: cell-based, human.
Source text: as §1

In series [3] the target is T3, human MLKL(190-471) pseudokinase domain (Homo sapiens, UniProt Q8NB16).
T3 sequence (Q8NB16 190-471): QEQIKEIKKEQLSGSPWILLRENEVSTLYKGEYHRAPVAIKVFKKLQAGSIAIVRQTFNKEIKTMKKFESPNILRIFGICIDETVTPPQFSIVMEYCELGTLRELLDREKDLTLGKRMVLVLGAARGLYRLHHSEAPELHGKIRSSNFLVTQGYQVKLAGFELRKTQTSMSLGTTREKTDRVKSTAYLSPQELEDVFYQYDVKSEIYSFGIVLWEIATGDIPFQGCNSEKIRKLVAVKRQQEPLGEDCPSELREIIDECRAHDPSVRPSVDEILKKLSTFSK
The series is described as follows: STD NMR nucleotide competition, human MLKL. The series is classed as binding. The conditions noted are these: 200 μM compound, 200 μM nucleotide, 2 μM human MLKL(190-471). The arrangement: His6 (pFastBac HTb, TEV-cleavable) (N, cleaved yes); made in house; host or cells: Sf21 insect cells. As for the experimental part:
Nucleotides were dissolved in NMR buffer (20 mM HEPES, pH 7.5, 200 mM NaCl, 90% D2O, 10% H2O) at a final concentration of 200 μM in each sample of STD experiments. Three different samples were prepared for each nucleotide: (1) ATP or ADP with protein buffer added as equivalent volume of protein containing samples (2) ATP or ADP with MLKL pseudokinase domain at a final concentration of 2 μM (3) ATP or ADP with MLKL pseudokinase domain (2 μM) with test compound at 200 μM. […] Saturation of the protein resonances was achieved by a 4 s train of Gaussian pulses centred at −0.5 ppm. For the reference spectra, a similar saturation pulse was applied at a frequency centred 20,000 Hz off-resonance. A 15 ms T2-spin-lock period was employed before acquisition to allow the residual protein signal to decay. NMR data were processed in TOPSPIN version 3.2 (Bruker BioSpin).

Where two headings read alike, the source gives them in different places.

T2 sequence (Q9QZL0 22-292 limits assumed): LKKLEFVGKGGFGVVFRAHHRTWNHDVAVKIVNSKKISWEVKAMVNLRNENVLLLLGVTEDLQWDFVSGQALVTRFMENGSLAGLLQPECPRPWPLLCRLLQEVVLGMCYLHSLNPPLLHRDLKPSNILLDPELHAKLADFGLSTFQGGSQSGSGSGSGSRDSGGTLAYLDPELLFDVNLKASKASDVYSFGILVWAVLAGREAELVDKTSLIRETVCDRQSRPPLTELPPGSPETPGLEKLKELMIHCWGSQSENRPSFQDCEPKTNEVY

For the compound `CN(c1ccc(NC(=O)Nc2ccc(OC(F)(F)F)cc2)cc1)c1ccnc(Nc2cccc(S(N)(=O)=O)c2)n1` [Compound 1, 3-((4-(methyl(4-(3-(4-(trifluoromethoxy)phenyl)ureido)phenyl)amino)pyrimidin-2-yl)amino)benzenesulfonamide], binding in series [1] was put at a Kd of 9300 nM. In addition, the IC50 (as a rule, the concentration needed to halve the response being measured) fell in the range of 50 to 100 nM in the series with wild type U937 cells (U-937, 48 h, read-out: IC50, rescue from TSQ-induced necroptosis) and 50 to 100 nM in the series with wild type U937 cells (U-937, read-out: Inhibition of necroptosis (IC50)). Besides, the “cells rescued from TSQ-induced necroptosis” value in the series with wild type U937 cells (wt U937 cells, 48 h) is recorded as about 50%. The “Off target effect (% cell death) at 500 nM” value in the series on U937 cells (compound at 500 nM) was under 20%. For the same compound, in the series on U937 cells (compound at 1 uM), the “Off target effect (% cell death) at 1 uM” value was under 20%. Besides, the “Off target effect (% cell death) at 5 uM” value in the series with U937 cells (compound at 5 uM) was determined as 60%. Moreover, the “Off target effect (% cell death) at 10 uM” value in the series with U937 cells (compound at 10 uM) turned out to be 79%. The “inhibition of RIPK3 catalytic activity and of RIPK3-mediated phosphorylation of MLKL” value on recombinant RIPK3 (in vitro kinase assays) is given as “neither the catalytic activity of recombinant RIPK3 nor RIPK3-mediated phosphorylation of MLKL were inhibited”. The “concentrations leading to enhanced RIPK3-mediated phosphorylation of MLKL” value on recombinant RIPK3 is at least 10 µM; on recombinant RIPK3 (listed as compound 1), over 5 µM. Also, the “impact on recombinant RIPK3 kinase activity” value at recombinant RIPK3 (relative to DMSO control, up to 12.5 μM test compound) is recorded as “no impact”. In series [2], the “effect on TS-induced apoptotic death” value is “unaffected”. The “competition with ATP and ADP for binding (STD NMR)” value in series [3] is “can compete with (i) ATP and (ii) ADP”.
